The values below come from patent US20250388589A1, “TRICYCLIC HETEROCYCLIC DERIVATIVES, COMPOSITIONS AND USES THEREOF” (Danatlas Pharmaceuticals Co., Ltd., priority 2022, published 2025).

The target in test [1] is hPARG (C-terminal His6-tag) (Homo sapiens (Human), UniProt Q86W56). In words: PARG Enzymatic Activity Assay (HTRF). The note with it: hPARG 65 pM final, biotinylated-NAD ribosylated PARP1 8 nM final. The format is biochemical. Put shortly: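 E. coli-expressed enzyme (65 pM final) preincubated 60 min RT with compounds (10-point 4-fold dilution, duplicate) in 50 mM Tris pH 7.4, 3 mM EDTA, 1 mM DTT, 50 mM KCl, 0.01% Tween 20. Biotinylated-NAD ribosylated PARP1 substrate (8 nM final) reacted 10 min RT; Eu-streptavidin/anti-6HIS-XL665 HTRF read 665/620 nm after 60 min. IC50 from 4-parameter Hill fit.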
On the technique in general: TR-FRET usually uses a lanthanide donor and a delayed reading to cut background.

In the next test the test system is Kuramochi cell line. Description: Cell Viability Assay (Cell Titer-Glo, 7 days). The format is cell-based. The note with it: 168 h, Kuramochi cells, 7 days incubation, read-out: PARG Cell viability (IC50). Put shortly: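 Kuramochi cells in RPMI with 10% FBS, seeded at 400 cells/well, were treated with a 9-point 3-fold dilution series in duplicate for 7 days at 37 °C, 5% CO2. Viability by CellTiter-Glo luminescence, normalised to DMSO and medium-only controls; IC50 from 4-parameter Hill fit.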
In general terms: Cellular ATP, detected with luciferase, serves as a proxy for viable cell number.

hPARG (C-terminal His6-tag), sequence (Q86W56 whole entry): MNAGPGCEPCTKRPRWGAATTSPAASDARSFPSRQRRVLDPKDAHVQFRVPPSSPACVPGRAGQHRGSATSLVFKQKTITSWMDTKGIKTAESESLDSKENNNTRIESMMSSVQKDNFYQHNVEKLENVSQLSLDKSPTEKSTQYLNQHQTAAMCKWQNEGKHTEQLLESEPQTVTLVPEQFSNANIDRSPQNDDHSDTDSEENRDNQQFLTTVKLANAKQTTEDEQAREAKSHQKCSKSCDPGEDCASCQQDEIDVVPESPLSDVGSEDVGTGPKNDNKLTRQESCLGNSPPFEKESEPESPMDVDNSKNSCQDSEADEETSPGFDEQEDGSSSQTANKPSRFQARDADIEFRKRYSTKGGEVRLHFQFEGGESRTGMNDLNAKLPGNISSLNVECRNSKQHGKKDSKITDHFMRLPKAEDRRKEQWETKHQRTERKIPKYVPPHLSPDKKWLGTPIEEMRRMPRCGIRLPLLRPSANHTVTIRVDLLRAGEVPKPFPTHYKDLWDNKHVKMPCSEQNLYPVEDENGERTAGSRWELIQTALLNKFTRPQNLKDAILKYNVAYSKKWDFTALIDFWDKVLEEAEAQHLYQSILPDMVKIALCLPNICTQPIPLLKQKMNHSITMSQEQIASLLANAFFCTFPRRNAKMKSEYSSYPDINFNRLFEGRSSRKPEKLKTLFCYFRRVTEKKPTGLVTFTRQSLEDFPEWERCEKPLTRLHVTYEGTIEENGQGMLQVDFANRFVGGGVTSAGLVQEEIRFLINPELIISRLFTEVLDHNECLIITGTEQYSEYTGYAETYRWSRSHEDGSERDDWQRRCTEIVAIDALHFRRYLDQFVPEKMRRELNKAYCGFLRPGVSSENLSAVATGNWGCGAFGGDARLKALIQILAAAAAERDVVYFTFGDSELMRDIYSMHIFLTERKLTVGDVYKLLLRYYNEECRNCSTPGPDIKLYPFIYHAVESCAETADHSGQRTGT

By IC50 is commonly meant the concentration needed to halve the response being measured. `N#CC1(NS(=O)(=O)c2ccc3c4c(C5CCN(C(=O)[C@H]6CCCN6)CC5)ncnc4n(-c4nnc(C(F)F)s4)c3c2)CC1` [Example 125, (R)-N-(1-cyanocyclopropyl)-9-(5-(difluoromethyl)-1,3,4-thiadiazol-2-yl)-4-(1-prolylpiperidin-4-yl)-9H-pyrimido[4,5-b]indole-7-sulfonamide]: the half-inhibitory concentration (IC50) in test [1] is below 100 nM; in the test with Kuramochi cell line, 100 to 1000 nM.

Consider `N#CC1(NS(=O)(=O)c2ccc3c4c(N5CCN6C(=O)OC[C@H]6C5)ncnc4n(-c4nnc(C(F)F)s4)c3c2)CC1` [Example 167, (R)-N-(1-cyanocyclopropyl)-9-(5-(difluoromethyl)-1,3,4-thiadiazol-2-yl)-4-(3-oxotetrahydro-3H-oxazolo[3,4-a]pyrazin-7(1H)-yl)-9H-pyrimido[4,5-b]indole-7-sulfonamide], for which the IC50 (in test [1]; in the test with Kuramochi cell line) was below 100 nM throughout.

`CCC(=O)N1CCC(c2ncnc3c2c2ccc(S(=O)(=O)NC4(C#N)CC4)cc2n3-c2nnc(C(F)F)s2)CC1` [Example 120, N-(1-cyanocyclopropyl)-9-(5-(difluoromethyl)-1,3,4-thiadiazol-2-yl)-4-(1-propionylpiperidin-4-yl)-9H-pyrimido[4,5-b]indole-7-sulfonamide]: the IC50 (in test [1]; in the test on Kuramochi cell line) was below 100 nM each time.

For `CS(=O)(=O)N1CCC(c2ncnc3c2c2ccc(S(=O)(=O)NC4(C#N)CC4)cc2n3-c2nnc(C(F)F)s2)CC1` [Example 121, N-(1-Cyanocyclopropyl)-9-(5-(difluoromethyl)-1,3,4-thiadiazol-2-yl)-4-(1-(methylsulfonyl)piperidin-4-yl)-9H-pyrimido[4,5-b]indole-7-sulfonamide], the IC50 (in test [1]; in the test with Kuramochi cell line) was below 100 nM throughout.

Consider `Cc1ccc(C(=O)N2CCN(c3ncnc4c3c3ccc(S(=O)(=O)NC5(C#N)CC5)cc3n4-c3nnc(C(F)F)s3)CC2)nc1` [Example 35, N-(1-Cyanocyclopropyl)-9-(5-(difluoromethyl)-1,3,4-thiadiazol-2-yl)-4-(4-(5-methylpicolinoyl)piperazin-1-yl)-9H-pyrimido[4,5-b]indole-7-sulfonamide], for which the IC50 (in test [1]; with Kuramochi cell line) was below 100 nM each time.

Take `CN(C)[C@H]1CCN(C(=O)N2CCC(c3ncnc4c3c3ccc(S(=O)(=O)NC5(C#N)CC5)cc3n4-c3nnc(C(F)F)s3)CC2)C1` [Example 136, (S)-N-(1-Cyanocyclo-propyl)-9-(5-(difluoromethyl)-1,3,4-thiadiazol-2-yl)-4-(1-(3-(dimethylamino)pyrrolidine-1-carbonyl)piperidin-4-yl)-9H-pyrimido [4,5-b]indole-7-sulfonamide]: the IC50 (in test [1]; with Kuramochi cell line) was below 100 nM each time.

In the case of `CC(C)C(=O)N1C=CC(c2ncnc3c2c2ccc(S(=O)(=O)NC4(C#N)CC4)cc2n3-c2nnc(C(F)F)s2)CC1` (stereo not drawn) [Example 75, N-(1-Cyanocyclopropyl)-9-(5-(difluoromethyl)-1,3,4-thiadiazol-2-yl)-4-(1-isobutyryl-1,2,3,4-tetrahydropyridin-4-yl)-9H-pyrimido[4,5-b]indole-7-sulfonamide], the IC50 (in test [1]; in the test on Kuramochi cell line) was below 100 nM throughout.

With `CC(C)(O)C(=O)N1CCC(c2ncnc3c2c2ccc(S(=O)(=O)NC4(C#N)CC4)cc2n3-c2nnc(C(F)F)s2)CC1` [Example 118, N-(1-cyanocyclopropyl)-9-(5-(difluoromethyl)-1,3,4-thiadiazol-2-yl)-4-(1-(2-hydroxy-2-methylpropanoyl)piperidin-4-yl)-9H-pyrimido[4,5-b]indole-7-sulfonamide], the IC50 (in test [1]; in the test with Kuramochi cell line) was below 100 nM in each case.

Consider `C[C@@H](N)C(=O)N1CCC(c2ncnc3c2c2ccc(S(=O)(=O)NC4(C#N)CC4)cc2n3-c2nnc(C(F)F)s2)CC1` [Example 127, 4-(1-(D-Alanyl)piperidin-4-yl)-N-(1-cyanocyclopropyl)-9-(5-(difluoromethyl)-1,3,4-thiadiazol-2-yl)-9H-pyrimido[4,5-b]indole-7-sulfonamide], for which the IC50 was below 100 nM in test [1] and 100 to 1000 nM in the test with Kuramochi cell line.

Take `CO[C@H]1CCN(c2ncnc3c2c2ccc(S(=O)(=O)NC4(C#N)CC4)cc2n3-c2nnc(C(F)F)s2)C[C@@H]1F` [Example 172, N-(1-cyanocyclopropyl)-9-(5-(difluoromethyl)-1,3,4-thiadiazol-2-yl)-4-((3S,4S)-3-fluoro-4-methoxypiperidin-1-yl)-9H-pyrimido[4,5-b]indole-7-sulfonamide]: the half-maximal inhibitory concentration (IC50) (in test [1]; with Kuramochi cell line) was below 100 nM throughout.

On to `CCN(C)C(=O)N1CCN(c2ncnc3c2c2ccc(S(=O)(=O)NC4(C#N)CC4)cc2n3-c2nnc(C(F)F)s2)CC1` [Example 7, 4-(7-(N-(1-Cyanocyclopropyl)sulfamoyl)-9-(5-(difluoromethyl)-1,3,4-thiadiazol-2-yl)-9H-pyrimido[4,5-b]indol-4-yl)-N-ethyl-N-methylpiperazine-1-carboxamide], for which the IC50 (in test [1]; in the test with Kuramochi cell line) was below 100 nM throughout.

Regarding `CC1(C(=O)N2CCN(c3ncnc4c3c3ccc(S(=O)(=O)NC5(C#N)CC5)cc3n4-c3nnc(C(F)F)s3)CC2)CC1` [Example 10, N-(1-Cyanocyclopropyl)-9-(5-(difluoromethyl)-1,3,4-thiadiazol-2-yl)-4-(4-(1-methylcyclopropane-1-carbonyl)piperazin-1-yl)-9H-pyrimido[4,5-b]indole-7-sulfonamide], the IC50 (in test [1]; in the test with Kuramochi cell line) was below 100 nM throughout.

As for `N#CC1(NS(=O)(=O)c2ccc3c4c(N5CCN6CCOC[C@@H]6C5)ncnc4n(-c4nnc(C(F)F)s4)c3c2)CC1` [Example 162, (S)-N-(1-cyanocyclopropyl)-9-(5-(difluoromethyl)-1,3,4-thiadiazol-2-yl)-4-(hexahydropyrazino[2,1-c][1,4]oxazin-8(1H)-yl)-9H-pyrimido[4,5-b]indole-7-sulfonamide], the 50% inhibitory concentration (IC50) (in test [1]; in the test on Kuramochi cell line) was below 100 nM in each case.

As for `CN(CC(F)(F)F)C(=O)N1CCN(c2ncnc3c2c2ccc(S(=O)(=O)NC4(C#N)CC4)cc2n3-c2nnc(C(F)F)s2)CC1` [Example 42, 4-(7-(N-(1-Cyanocyclopropyl)sulfamoyl)-9-(5-(difluoromethyl)-1,3,4-thiadiazol-2-yl)-9H-pyrimido[4,5-b]indol-4-yl)-N-methyl-N-(2,2,2-trifluoroethyl)piperazine-1-carboxamide], the IC50 (in test [1]; in the test on Kuramochi cell line) was below 100 nM throughout.

On to `Cn1ccnc1N1CCN(c2ncnc3c2c2ccc(S(=O)(=O)NC4(C#N)CC4)cc2n3-c2nnc(C(F)F)s2)CC1` [Example 22, N-(1-Cyanocyclopropyl)-9-(5-(difluoromethyl)-1,3,4-thiadiazol-2-yl)-4-(4-(1-methyl-JH-imidazol-2-yl)piperazin-1-yl)-9H-pyrimido[4,5-b]indole-7-sulfonamide], for which the IC50 in test [1] was below 100 nM; in the test on Kuramochi cell line, 100 to 1000 nM.

For `N#CC1(NS(=O)(=O)c2ccc3c4c(N5CCN(C(=O)N6CCC6)CC5)ncnc4n(-c4nnc(C(F)F)s4)c3c2)CC1` [Example 63, 4-(4-(Azetidine-1-carbonyl)piperazin-1-yl)-N-(1-cyanocyclopropyl)-9-(5-(difluoromethyl)-1,3,4-thiadiazol-2-yl)-9H-pyrimido[4,5-b]indole-7-sulfonamide], the half-maximal inhibitory concentration (IC50) (in test [1]; in the test on Kuramochi cell line) was below 100 nM each time.

For `CON(C)C(=O)N1CCC(c2ncnc3c2c2ccc(S(=O)(=O)NC4(C#N)CC4)cc2n3-c2nnc(C(F)F)s2)CC1` [Example 145, 4-(7-(N-(1-Cyanocyclopropyl)sulfamoyl)-9-(5-(difluoromethyl)-1,3,4-thiadiazol-2-yl)-9H-pyrimido[4,5-b]indol-4-yl)-N-methoxy-N-methylpiperidine-1-carboxamide], the half-maximal inhibitory concentration (IC50) (in test [1]; in the test on Kuramochi cell line) was below 100 nM throughout.

In the case of `CC(C)C(=O)N1CC2(C1)CN(c1ncnc3c1c1ccc(S(=O)(=O)NC4(C#N)CC4)cc1n3-c1nnc(C(F)F)s1)C2` [Example 23, N-(1-Cyanocyclopropyl)-9-[5-(difluoromethyl)-1,3,4-thiadiazol-2-yl]-4-[2-(2-methylpropanoyl)-2,6-diazaspiro[3.3]heptan-6-yl]pyrimido[4,5-b]indole-7-sulfonamide], the values for the concentration for half-maximal inhibition (IC50) (in test [1]; in the test with Kuramochi cell line) were below 100 nM and 100 to 1000 nM, respectively.

With `CC(C)OC(=O)N1CCN(c2ncnc3c2c2ccc(S(=O)(=O)NC4(C#N)CC4)cc2n3-c2nnc(C(F)F)s2)CC1` [Example 15, Isopropyl 4-(7-(N-(1-cyanocyclopropyl)sulfamoyl)-9-(5-(difluoromethyl)-1,3,4-thiadiazol-2-yl)-9H-pyrimido[4,5-b]indol-4-yl)piperazine-1-carboxylate], the half-inhibitory concentration (IC50) (in test [1]; with Kuramochi cell line) was 100 to 1000 nM throughout.

For `CN(C)C(=O)N1CCC(c2ncnc3c2c2ccc(S(=O)(=O)NC4(C#N)CC4)cc2n3-c2nnc(C(F)F)s2)CC1` [Example 88, 4-(7-(N-(1-Cyanocyclopropyl)sulfamoyl)-9-(5-(difluoromethyl)-1,3,4-thiadiazol-2-yl)-9H-pyrimido[4,5-b]indol-4-yl)-N,N-dimethylpiperidine-1-carboxamide], the half-inhibitory concentration (IC50) (in test [1]; in the test on Kuramochi cell line) was below 100 nM each time.

With `CC(C)C(=O)N1CCCN(c2ncnc3c2c2ccc(S(=O)(=O)NC4(C#N)CC4)cc2n3-c2nnc(C(F)F)s2)CC1` [Example 25, N-(1-Cyanocyclopropyl)-9-(5-(difluoromethyl)-1,3,4-thiadiazol-2-yl)-4-(4-isobutyryl-1,4-diazepan-1-yl)-9H-pyrimido[4,5-b]indole-7-sulfonamide], the 50% inhibitory concentration (IC50) in test [1] was below 100 nM; with Kuramochi cell line, 100 to 1000 nM.
